Reference: patent US20120016009A1, “Optimized Methods For Delivery Of DSRNA Targeting The PCSK9 Gene” (priority 2008, published 2012)
In the oligonucleotide strings, read from the 5' end, every base follows the letter of its sugar. An asterisk marks phosphorothioate; unmarked linkages are phosphodiester. Other units and linkages are bracketed, terminal groups are in braces. A string of capitals states the bases alone. d = 2'-deoxy (DNA); m = 2'-O-methyl; r = 2'-OH (RNA); {P} = phosphate

These substances were tested on PCSK9 mRNA (assay: In vitro screening of modified dsRNAs targeted to PCSK9 (Table 2b; cell type not given)). Settings: 30 nM siRNA.
Type: cell-based
Description: For transfection with siRNA, HuH7, HepG2, or HeLa cells were seeded at a density of 2.0×10^4 cells/well in 96-well plates and transfected directly. Transfection of siRNA (30 nM for single dose screen) was carried out with lipofectamine 2000 (Invitrogen GmbH, Karlsruhe, Germany, cat. No. 11668-019) as described by the manufacturer.
24 hours after transfection HuH7 and HepG2 cells were lysed and PCSK9 mRNA levels were quantified with the Quantigene Explore Kit (Genosprectra, Dumbarton Circle Fremont, USA, cat. No. QG-000-02) according to the protocol. PCSK9 mRNA levels were normalized to GAP-DH mRNA. For each siRNA eight individual datapoints were collected. siRNA duplexes unrelated to PCSK9 gene were used as control. The activity of a given PCSK9 specific siRNA duplex was expressed as percent PCSK9 mRNA concentration in treated cells relative to PCSK9 mRNA concentration in cells treated with the control siRNA duplex.
Tables 1b and 2b (and FIG. 6A) summarize the results and provide examples of in vitro screens in different cell lines at different doses. Silencing of PCSK9 transcript was expressed as percentage of remaining transcript at a given dose.

Row | Substance | Remaining mRNA in % of controls at siRNA conc. of 30 nM [%]
1 | AD-12038: modified dsRNA, SEQ ID NO:1311/1312 (chain 1 rGmCmCmUrGrGrArGmUmUmUrAmUmUmCrGrGrArAdT*dT; chain 2 mUrUrCrCrGrArArUrArArArCrUrCrCrArGrGrCdT*dT) | 13

Same assay, conditions: data not shown; test system not given

Row | Substance | IC50 [nM]
2 | AD-3511: a derivative of AD-10792; sense SEQ ID NO: 1521, antisense SEQ ID NO: 1522 (sense rGmCmCmUrGrGrArGmUmUmUrAmUmUmCrGrGrArAdT*dT; antisense {P}-mUrUrCrCrGrArAmUrArArArCrUrCmCrArGrGrCdT*dT; further chemistry not fully specified) | 0.07 to 0.2

The substances below were run on PCSK9 mRNA (assay: PCSK9 siRNA screening in HepG2 cells (lipofectamine 2000 transfection, PCSK9 mRNA by Quantigene, normalized to GAP-DH)). Settings: not given.
Type: cell-based, human
Summary of the method: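 PCSK9 silencing was assessed in HepG2 cells by lipofectamine 2000 siRNA transfection in 96-well plates. Twenty-four hours later, lysates were analyzed with the Quantigene Explore Kit, with PCSK9 signal normalized to GAP-DH. Eight datapoints were collected per siRNA, and remaining transcript was expressed as a percentage of cells treated with an unrelated control siRNA duplex.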

Row | Substance | IC50 [nM]
3 | AD-9731: PCSK9 siRNA (sense mUrGrGmUrGrArArGrAmUrGrArGmUrGrGmCrGrAdT*dT; antisense rUrCrGrCmCrArCrUmCrArUrCrUrUmCrArCmCrAdT*dT) | 0.32

Same assay, conditions: 3 nM siRNA

Row | Substance | Mean percent remaining mRNA transcript at siRNA concentration/in cell type 3 nM/HepG2 [%]
4 | AD-9731: PCSK9 siRNA (sense mUrGrGmUrGrArArGrAmUrGrArGmUrGrGmCrGrAdT*dT; antisense rUrCrGrCmCrArCrUmCrArUrCrUrUmCrArCmCrAdT*dT) | 31
5 | AD-9733: PCSK9 siRNA (sense rGrGrArGmCmUrGrGmUrGmCmUrArGmCmCmUmUrGdT*dT; antisense mCrArArGrGrCmUrArGmCrArCmCrArGrCrUrCrCdT*dT) | 73
6 | AD-9752: PCSK9 siRNA (sense mUrGrArArGrAmUrAmUmUmUrAmUmUmCmUrGrGrGdT*dT; antisense rCrCmCrArGrArAmUrArArAmUrArUrCrUrUmCrAdT*dT) | 33
7 | AD-9760: PCSK9 siRNA (sense mCmUmCmUrGmUmUrGmCmCmUmUmUmUmUrAmCrArGdT*dT; antisense rCrUrGmUrArArArArArGrGmCrArAmCrArGrArGdT*dT) | 27
8 | AD-9765: PCSK9 siRNA (sense rGmUrGmCmUrGrArGrGmCmCrAmCrGrArGrGmUmCdT*dT; antisense rGrArCrCrUrCrGrUrGrGrCrCrUmCrArGmCrArCdT*dT) | 74

Same assay, conditions: 30 nM siRNA

Row | Substance | Mean percent remaining mRNA transcript at siRNA concentration/in cell type 30 nM/HepG2 [%]
9 | AD-9730: PCSK9 siRNA (sense mCmUmCrArGmCmCrArAmCmCmCrGmCmUmCmCrAmCdT*dT; antisense rGrUrGrGrArGrCrGrGrGrUrUrGrGrCrUrGrArGdT*dT) | 85
10 | AD-9731: PCSK9 siRNA (sense mUrGrGmUrGrArArGrAmUrGrArGmUrGrGmCrGrAdT*dT; antisense rUrCrGrCmCrArCrUmCrArUrCrUrUmCrArCmCrAdT*dT) | 31
11 | AD-9732: PCSK9 siRNA (sense mUmCrGmUrGmCmUrGrGmUmCrAmCmCrGmCmUrGmCdT*dT; antisense rGmCrArGrCrGrGrUrGrArCmCrArGmCrArCrGrAdT*dT) | 105
12 | AD-9733: PCSK9 siRNA (sense rGrGrArGmCmUrGrGmUrGmCmUrArGmCmCmUmUrGdT*dT; antisense mCrArArGrGrCmUrArGmCrArCmCrArGrCrUrCrCdT*dT) | 78
13 | AD-9734: PCSK9 siRNA (sense mUrGmCmUrArGmCmCmUmUrGmCrGmUmUmCmCrGrAdT*dT; antisense rUrCrGrGrArArCrGmCrArArGrGrCmUrArGmCrAdT*dT) | 91
14 | AD-9735: PCSK9 siRNA (sense mCrAmCrGrGmUrAmCmCrGrGrGmCrGrGrAmUrGrAdT*dT; antisense rUmCrArUrCrCrGrCrCrCrGrGmUrArCrCrGrUrGdT*dT) | 115
15 | AD-9737: PCSK9 siRNA (sense mUmCmCmUrArGrAmCrAmCmCrArGmCrAmUrAmCrAdT*dT; antisense rUrGmUrArUrGrCrUrGrGrUrGrUrCmUrArGrGrAdT*dT) | 68
16 | AD-9738: PCSK9 siRNA (sense rAmCmCrAmCmCrGrGrGrArArAmUmCrGrArGrGrGdT*dT; antisense rCrCrCrUrCrGrArUrUrUrCrCrCrGrGrUrGrGrUdT*dT) | 83
17 | AD-9739: PCSK9 siRNA (sense mCrGrArGrGrGmCrArGrGrGmUmCrAmUrGrGmUmCdT*dT; antisense rGrArCmCrArUrGrArCrCrCrUrGrCrCrCrUrCrGdT*dT) | 109
18 | AD-9740: PCSK9 siRNA (sense rGrGmCrArAmCmUmUmCmCrGrGrGrAmCrGrAmUrGdT*dT; antisense mCrArUrCrGrUrCrCrCrGrGrArArGrUrUrGrCrCdT*dT) | 198
19 | AD-9741: PCSK9 siRNA (sense mUmUmCmCrGrGrGrAmCrGrAmUrGmCmCmUrGmCmCdT*dT; antisense rGrGmCrArGrGmCrArUrCrGrUrCrCrCrGrGrArAdT*dT) | 130
20 | AD-9742: PCSK9 siRNA (sense rArGmCrAmCmCmUrGmCmUmUmUrGmUrGmUmCrAmCdT*dT; antisense rGrUrGrAmCrAmCrArArArGmCrArGrGrUrGrCrUdT*dT) | 127
21 | AD-9743: PCSK9 siRNA (sense rAmUrGmCmUrGmUmCmUrGmCmCrGrArGmCmCrGrGdT*dT; antisense rCrCrGrGrCrUrCrGrGmCrArGrAmCrArGmCrArUdT*dT) | 104
22 | AD-9744: PCSK9 siRNA (sense rGrArGmCrAmUrGrGrArAmUmCmCmCrGrGmCmCmCdT*dT; antisense rGrGrGrCrCrGrGrGrArUrUrCmCrArUrGrCrUrCdT*dT) | 91
23 | AD-9745: PCSK9 siRNA (sense mUmCrArGrGrArGmCmCrGrGrGrAmCrGmUmCrArGdT*dT; antisense rCrUrGrArCrGrUrCrCrCrGrGrCrUrCrCrUrGrAdT*dT) | 56
24 | AD-9746: PCSK9 siRNA (sense mCrArGrGrArGmCmCrGrGrGrAmCrGmUmCrArGmCdT*dT; antisense rGrCrUrGrArCrGrUrCrCrCrGrGrCrUrCrCrUrGdT*dT) | 89

Row | Substance | Mean percent remaining mRNA transcript at siRNA concentration/in cell type 30 nM/HepG2 [%]
25 | AD-9747: PCSK9 siRNA (sense mUmCmUrGrGrAmUrGrGmCrAmUmCmUrArGmCmCrAdT*dT; antisense rUrGrGrCmUrArGrArUrGrCmCrArUrCmCrArGrAdT*dT) | 63
26 | AD-9748: PCSK9 siRNA (sense mCmUrGmUmCmCmCmUmCmCmUmUrGrArGmCrAmCmCdT*dT; antisense rGrGrUrGrCrUmCrArArGrGrArGrGrGrAmCrArGdT*dT) | 103
27 | AD-9749: PCSK9 siRNA (sense rGmUmCrArGmCmUmCmCrArGrGmCrGrGmUmCmCmUdT*dT; antisense rArGrGrArCrCrGrCrCrUrGrGrArGrCrUrGrArCdT*dT) | 105
28 | AD-9750: PCSK9 siRNA (sense mCrGmUmCrArGmCmUmCmCrArGrGmCrGrGmUmCmCdT*dT; antisense rGrGrArCrCrGrCrCrUrGrGrArGrCrUrGrArCrGdT*dT) | 96
29 | AD-9751: PCSK9 siRNA (sense mCmUrGrGmUrGrGrArGrGmUrGmUrAmUmCmUmCmCdT*dT; antisense rGrGrArGrAmUrAmCrArCrCrUrCmCrArCmCrArGdT*dT) | 60
30 | AD-9752: PCSK9 siRNA (sense mUrGrArArGrAmUrAmUmUmUrAmUmUmCmUrGrGrGdT*dT; antisense rCrCmCrArGrArAmUrArArAmUrArUrCrUrUmCrAdT*dT) | 28
31 | AD-9753: PCSK9 siRNA (sense rArGrArGrAmCmUrGrAmUmCmCrAmCmUmUmCmUmCdT*dT; antisense rGrArGrArArGrUrGrGrArUmCrArGrUrCrUrCrUdT*dT) | 127
32 | AD-9754: PCSK9 siRNA (sense mUmUmCmUmCmUrGmCmCrArArArGrAmUrGmUmCrAdT*dT; antisense rUrGrAmCrArUrCrUrUrUrGrGmCrArGrArGrArAdT*dT) | 89
33 | AD-9756: PCSK9 siRNA (sense rGrGrGmCrArGrGrGmUmCrAmUrGrGmUmCrAmCmCdT*dT; antisense rGrGrUrGrArCmCrArUrGrArCrCrCrUrGrCrCrCdT*dT) | 63
34 | AD-9757: PCSK9 siRNA (sense mCmUmCmUrGmCmCrArArArGrAmUrGmUmCrAmUmCdT*dT; antisense rGrArUrGrAmCrArUrCrUrUrUrGrGmCrArGrArGdT*dT) | 78
35 | AD-9758: PCSK9 siRNA (sense mCrArAmCmUmUmUrGrGmCmCrGmCmUrGmUrGmUrGdT*dT; antisense mCrAmCrAmCrArGrCrGrGrCmCrArArArGrUrUrGdT*dT) | 96
36 | AD-9759: PCSK9 siRNA (sense mUrGrGmUmCrAmCmCrGmCmUrGmCmCrGrGmCrArAdT*dT; antisense rUrUrGrCrCrGrGmCrArGrCrGrGrUrGrArCmCrAdT*dT) | 111
37 | AD-9760: PCSK9 siRNA (sense mCmUmCmUrGmUmUrGmCmCmUmUmUmUmUrAmCrArGdT*dT; antisense rCrUrGmUrArArArArArGrGmCrArAmCrArGrArGdT*dT) | 14
38 | AD-9763: PCSK9 siRNA (sense rGrArGrGrGmCrArGrGrGmUmCrAmUrGrGmUmCrAdT*dT; antisense rUrGrArCmCrArUrGrArCrCrCrUrGrCrCrCrUrCdT*dT) | 79
39 | AD-9764: PCSK9 siRNA (sense mCmUrGrGrArGmUmUmUrAmUmUmCrGrGrArArArAdT*dT; antisense rUrUrUrUrCrCrGrArAmUrArArArCrUrCmCrArGdT*dT) | 112
40 | AD-9765: PCSK9 siRNA (sense rGmUrGmCmUrGrArGrGmCmCrAmCrGrArGrGmUmCdT*dT; antisense rGrArCrCrUrCrGrUrGrGrCrCrUmCrArGmCrArCdT*dT) | 82
